Experimental data taken from ChEMBL document CHEMBL4400547 (J Med Chem, 2019).
≈ marks a conversion by molar mass, not a printed value.

Key:
[1] = target: Dual specificity protein kinase CLK2 (Homo sapiens) (UniProt P49760); assay: Inhibition of recombinant human GST-tagged CLK2 expressed in baculovirus expression system at 1 uM by kinomescan assay relative to control
[2] = target: Dual specificity protein kinase CLK1 (Homo sapiens) (UniProt P49759); assay: Inhibition of recombinant human GST-tagged CLK1 expressed in Escherichia coli at 1 uM by kinomescan assay relative to control
[3] = target: T1, Serine/threonine-protein kinase/endoribonuclease IRE1 (Homo sapiens, UniProt O75460); assay: Inhibition of dephosphorylated IRE1alpha (G547 to L977 residues) (unknown origin) autophosphorylation at S724 after 25 mins in presence of ATP by dissociation-enhanced lanthanide fluorescence immunoassay
[4] = target: T1, Serine/threonine-protein kinase/endoribonuclease IRE1; assay: Displacement for LanthaScreen tracer from dephosphorylated IRE1alpha (G547 to L977 residues) (unknown origin) ATP binding site […] after 60 mins by FRET assay
[5] = target: T1, Serine/threonine-protein kinase/endoribonuclease IRE1; assay: Inhibition of dephosphorylated IRE1alpha (G547 to L977 residues) (unknown origin) -dependent cleavage of FAM-labeled stem-loop RNA containing the XBP1 cleavage site preincubated for 30 mins followed by RNA XBP1 substrate addition and measured after 15 mins by FRET assay
[6] = target: T1, Serine/threonine-protein kinase/endoribonuclease IRE1; assay: Inhibition of tunicamycin-induced IRE1alpha (unknown origin) expressed in HEK293 cells assessed as reduction in IRE1alpha-dependent splicing of XBP1u-luciferase mRNA by luciferase reporter gene assay; format: cell-based
[7] = Distribution coefficient, log D of the compound at pH 7.4; format: physicochemical; details: octanol/water
[8] = target: Dual specificity protein kinase CLK4 (Homo sapiens) (UniProt Q9HAZ1); assay: Inhibition of recombinant full length human GST-tagged CLK4 expressed in baculovirus expression system at 1 uM by kinomescan assay relative to control
[9] = target: Dual specificity tyrosine-phosphorylation-regulated kinase 1A (Homo sapiens) (UniProt Q13627); assay: Inhibition of recombinant full length human GST-tagged DYRK1A expressed in baculovirus expression system at 1 uM by kinomescan assay relative to control
[10] = target: Dual specificity tyrosine-phosphorylation-regulated kinase 1B (Homo sapiens) (UniProt Q9Y463); assay: Inhibition of recombinant full length human GST-tagged DYRK1B expressed in baculovirus expression system at 1 uM by kinomescan assay relative to control
[11] = target: Homeodomain-interacting protein kinase 4 (Homo sapiens) (UniProt Q8NE63); assay: Inhibition of recombinant human His-tagged HIPK4 expressed in baculovirus expression system at 1 uM by kinomescan assay relative to control
[12] = target: Receptor-type tyrosine-protein kinase FLT3 (Homo sapiens) (UniProt P36888); assay: Inhibition of recombinant human His-tagged FLT3 expressed in baculovirus expression system at 1 uM by kinomescan assay relative to control
[13] = test system: Receptor-type tyrosine-protein kinase FLT3 (Homo sapiens), P36888 [UNDEFINED MUTATION]; assay: Inhibition of recombinant human His-tagged FLT3 ITD mutant expressed in baculovirus expression system at 1 uM by kinomescan assay relative to control
[14] = test system: Receptor-type tyrosine-protein kinase FLT3 (Homo sapiens), P36888 [N841I]; assay: Inhibition of recombinant human His-tagged FLT3 […] mutant expressed in baculovirus expression system at 1 uM by kinomescan assay relative to control
[15] = target: Mast/stem cell growth factor receptor Kit (Homo sapiens) (UniProt P10721); assay: Inhibition of recombinant human His-tagged KIT expressed in baculovirus expression system at 1 uM by kinomescan assay relative to control
[16] = test system: Mast/stem cell growth factor receptor Kit (Homo sapiens), P10721 [L576P]; assay: Inhibition of recombinant human His-tagged KIT L576P mutant expressed in baculovirus expression system at 1 uM by kinomescan assay relative to control
[17] = test system: Mast/stem cell growth factor receptor Kit (Homo sapiens), P10721 [V559D]; assay: Inhibition of recombinant human His-tagged KIT V559D mutant expressed in baculovirus expression system at 1 uM by kinomescan assay relative to control
[18] = target: Platelet-derived growth factor receptor beta (Homo sapiens) (UniProt P09619); assay: Inhibition of recombinant human His-tagged PDGFRB expressed in baculovirus expression system at 1 uM by kinomescan assay relative to control
[19] = test system: Receptor-type tyrosine-protein kinase FLT3 (Homo sapiens), P36888 [D835Y]; assay: Inhibition of recombinant human His-tagged FLT3 D835Y mutant expressed in baculovirus expression system at 1 uM by kinomescan assay relative to control
[20] = test system: Receptor-type tyrosine-protein kinase FLT3 (Homo sapiens), P36888 [K663Q]; assay: Inhibition of recombinant human His-tagged FLT3 K663Q mutant expressed in baculovirus expression system at 1 uM by kinomescan assay relative to control
[21] = target: Cyclin-dependent kinase 17 (Homo sapiens) (UniProt Q00537); assay: Inhibition of recombinant human GST-tagged PCTK2 expressed in baculovirus expression system at 1 uM by kinomescan assay relative to control
HEK293 = assay: cells; details: Homo sapiens
Description: Cytotoxicity against HEK293 cells co-expressing XBP1u-mRNA by luciferase reporter gene assay

physchem = details: buffer
Description: Aqueous kinetic solubility of the compound

[22] = target: T1, Serine/threonine-protein kinase/endoribonuclease IRE1; assay: Inhibition of tunicamycin-induced GFP-fused IRE1alpha (unknown origin) oligomerization expressed in HEK293 cells assessed as reduction in fluorescent foci formation after 5 hrs by fluorescence based assay; format: cell-based
[23] = target: T1, Serine/threonine-protein kinase/endoribonuclease IRE1; assay: Inhibition of thapsigargin-induced IRE1alpha (unknown origin) expressed in HEK293 cells assessed as reduction in IRE1alpha-dependent splicing of XBP1u-luciferase mRNA by luciferase reporter gene assay; format: cell-based

T1 sequence (O75460 whole entry, the tested form may be a part): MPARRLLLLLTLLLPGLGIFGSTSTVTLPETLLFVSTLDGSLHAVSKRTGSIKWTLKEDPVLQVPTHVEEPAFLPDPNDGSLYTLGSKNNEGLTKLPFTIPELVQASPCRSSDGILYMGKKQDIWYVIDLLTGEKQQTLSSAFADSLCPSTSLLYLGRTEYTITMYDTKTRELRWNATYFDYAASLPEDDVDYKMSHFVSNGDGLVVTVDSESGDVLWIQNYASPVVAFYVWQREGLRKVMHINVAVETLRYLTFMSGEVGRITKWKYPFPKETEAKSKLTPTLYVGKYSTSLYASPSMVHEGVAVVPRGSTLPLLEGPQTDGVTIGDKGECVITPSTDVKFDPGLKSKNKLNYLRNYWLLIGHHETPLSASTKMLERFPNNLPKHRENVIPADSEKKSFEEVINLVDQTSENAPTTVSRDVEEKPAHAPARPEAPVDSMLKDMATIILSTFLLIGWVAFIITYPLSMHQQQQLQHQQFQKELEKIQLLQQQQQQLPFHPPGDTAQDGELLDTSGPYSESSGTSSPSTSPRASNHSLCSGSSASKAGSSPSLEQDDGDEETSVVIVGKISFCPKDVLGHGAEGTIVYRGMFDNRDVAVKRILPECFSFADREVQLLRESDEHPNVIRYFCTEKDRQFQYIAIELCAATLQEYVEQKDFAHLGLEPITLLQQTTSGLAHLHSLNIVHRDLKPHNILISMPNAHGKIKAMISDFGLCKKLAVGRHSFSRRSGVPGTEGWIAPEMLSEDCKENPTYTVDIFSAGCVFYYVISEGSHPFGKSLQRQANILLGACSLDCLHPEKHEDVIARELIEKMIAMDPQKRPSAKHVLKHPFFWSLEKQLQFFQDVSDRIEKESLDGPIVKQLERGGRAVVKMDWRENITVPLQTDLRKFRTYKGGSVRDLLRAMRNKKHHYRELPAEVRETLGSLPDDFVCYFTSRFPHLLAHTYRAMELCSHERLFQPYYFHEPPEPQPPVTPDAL
Cyclin-dependent kinase 17 (Homo sapiens), sequence (Q00537 whole entry, looked up): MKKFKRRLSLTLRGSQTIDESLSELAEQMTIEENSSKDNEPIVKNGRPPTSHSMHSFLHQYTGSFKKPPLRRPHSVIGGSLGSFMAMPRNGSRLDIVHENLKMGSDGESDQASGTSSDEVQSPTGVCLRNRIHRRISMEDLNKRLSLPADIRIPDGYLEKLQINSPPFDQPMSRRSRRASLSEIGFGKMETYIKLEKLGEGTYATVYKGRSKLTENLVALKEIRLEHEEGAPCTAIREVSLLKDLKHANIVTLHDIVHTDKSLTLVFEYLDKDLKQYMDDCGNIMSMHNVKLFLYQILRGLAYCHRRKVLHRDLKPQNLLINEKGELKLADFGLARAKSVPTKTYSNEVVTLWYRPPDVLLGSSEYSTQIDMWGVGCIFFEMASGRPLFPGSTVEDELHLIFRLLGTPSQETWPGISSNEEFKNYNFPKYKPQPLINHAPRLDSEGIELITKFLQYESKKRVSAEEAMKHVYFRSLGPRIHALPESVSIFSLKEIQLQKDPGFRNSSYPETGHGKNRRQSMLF
Mast/stem cell growth factor receptor Kit (Homo sapiens), P10721 [L576P], sequence (P10721 whole entry L576P): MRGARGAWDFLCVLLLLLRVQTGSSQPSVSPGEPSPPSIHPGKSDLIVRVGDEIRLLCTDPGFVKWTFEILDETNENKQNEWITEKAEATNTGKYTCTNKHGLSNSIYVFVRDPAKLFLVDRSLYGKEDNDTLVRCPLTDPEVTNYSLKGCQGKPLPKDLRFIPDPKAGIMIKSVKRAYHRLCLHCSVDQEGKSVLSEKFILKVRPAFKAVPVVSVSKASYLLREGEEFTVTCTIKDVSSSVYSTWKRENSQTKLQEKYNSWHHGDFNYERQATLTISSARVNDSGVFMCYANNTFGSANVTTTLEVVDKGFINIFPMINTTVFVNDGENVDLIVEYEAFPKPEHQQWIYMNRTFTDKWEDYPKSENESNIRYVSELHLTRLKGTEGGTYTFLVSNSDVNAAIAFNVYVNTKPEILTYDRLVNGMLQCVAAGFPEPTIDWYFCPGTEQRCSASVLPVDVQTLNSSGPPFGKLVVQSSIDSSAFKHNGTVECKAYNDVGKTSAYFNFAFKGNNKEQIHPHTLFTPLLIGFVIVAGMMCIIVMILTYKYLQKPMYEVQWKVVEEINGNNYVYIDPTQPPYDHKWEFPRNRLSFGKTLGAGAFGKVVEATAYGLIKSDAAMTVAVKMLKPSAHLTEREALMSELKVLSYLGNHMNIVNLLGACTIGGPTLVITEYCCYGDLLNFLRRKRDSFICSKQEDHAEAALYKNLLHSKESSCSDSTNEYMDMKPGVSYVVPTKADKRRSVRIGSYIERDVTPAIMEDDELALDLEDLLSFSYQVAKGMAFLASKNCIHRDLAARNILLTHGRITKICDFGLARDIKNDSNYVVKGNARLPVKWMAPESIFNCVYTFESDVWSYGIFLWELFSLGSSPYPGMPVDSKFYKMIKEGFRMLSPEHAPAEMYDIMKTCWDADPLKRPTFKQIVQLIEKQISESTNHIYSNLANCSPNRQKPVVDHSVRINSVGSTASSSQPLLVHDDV
Homeodomain-interacting protein kinase 4 (Homo sapiens), sequence (Q8NE63 whole entry): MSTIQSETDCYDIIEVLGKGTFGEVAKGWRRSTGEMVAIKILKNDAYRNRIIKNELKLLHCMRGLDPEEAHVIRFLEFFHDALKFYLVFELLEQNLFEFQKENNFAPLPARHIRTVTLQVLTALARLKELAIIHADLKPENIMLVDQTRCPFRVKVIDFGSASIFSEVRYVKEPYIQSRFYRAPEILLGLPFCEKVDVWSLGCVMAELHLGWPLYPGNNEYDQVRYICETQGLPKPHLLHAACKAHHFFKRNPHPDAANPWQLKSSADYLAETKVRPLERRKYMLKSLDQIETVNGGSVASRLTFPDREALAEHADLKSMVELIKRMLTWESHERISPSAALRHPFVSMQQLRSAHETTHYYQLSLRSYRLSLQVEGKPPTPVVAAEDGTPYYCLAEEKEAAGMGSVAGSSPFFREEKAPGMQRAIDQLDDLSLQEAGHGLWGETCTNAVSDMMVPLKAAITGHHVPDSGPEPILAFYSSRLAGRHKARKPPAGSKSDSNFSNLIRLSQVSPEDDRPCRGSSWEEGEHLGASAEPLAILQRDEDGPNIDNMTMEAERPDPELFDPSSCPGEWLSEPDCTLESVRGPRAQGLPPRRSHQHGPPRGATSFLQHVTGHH
Mast/stem cell growth factor receptor Kit (Homo sapiens), P10721 [V559D], sequence (P10721 whole entry V559D): as the sequence (P10721 whole entry L576P) above, with V559D, P576L counted along it
Dual specificity protein kinase CLK4 (Homo sapiens), sequence (Q9HAZ1 whole entry, looked up): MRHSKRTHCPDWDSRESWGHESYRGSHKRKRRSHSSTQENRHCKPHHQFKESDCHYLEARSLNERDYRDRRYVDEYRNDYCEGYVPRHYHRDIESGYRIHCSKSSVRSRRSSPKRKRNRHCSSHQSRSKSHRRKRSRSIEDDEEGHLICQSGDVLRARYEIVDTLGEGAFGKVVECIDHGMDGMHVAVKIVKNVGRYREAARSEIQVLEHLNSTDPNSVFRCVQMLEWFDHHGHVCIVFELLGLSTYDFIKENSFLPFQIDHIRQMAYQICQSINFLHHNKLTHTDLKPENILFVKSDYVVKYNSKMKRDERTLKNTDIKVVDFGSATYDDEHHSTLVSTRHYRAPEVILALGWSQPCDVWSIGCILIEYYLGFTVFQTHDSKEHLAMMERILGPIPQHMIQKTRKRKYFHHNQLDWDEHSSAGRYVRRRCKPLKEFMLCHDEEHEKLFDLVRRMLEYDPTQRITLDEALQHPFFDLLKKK
Dual specificity protein kinase CLK2 (Homo sapiens), sequence (P49760 whole entry, looked up): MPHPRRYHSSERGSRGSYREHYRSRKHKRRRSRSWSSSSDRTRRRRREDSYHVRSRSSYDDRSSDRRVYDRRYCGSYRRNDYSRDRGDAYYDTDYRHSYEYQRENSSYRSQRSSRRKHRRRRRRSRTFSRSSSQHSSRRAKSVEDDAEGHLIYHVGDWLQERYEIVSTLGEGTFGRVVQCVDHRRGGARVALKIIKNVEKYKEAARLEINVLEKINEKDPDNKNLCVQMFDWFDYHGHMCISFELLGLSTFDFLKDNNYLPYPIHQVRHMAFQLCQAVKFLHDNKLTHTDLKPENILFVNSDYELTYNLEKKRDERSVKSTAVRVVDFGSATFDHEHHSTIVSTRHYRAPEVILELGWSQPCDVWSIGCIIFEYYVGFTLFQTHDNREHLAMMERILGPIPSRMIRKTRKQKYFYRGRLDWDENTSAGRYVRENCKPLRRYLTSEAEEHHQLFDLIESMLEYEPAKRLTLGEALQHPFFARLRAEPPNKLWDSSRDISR
Dual specificity protein kinase CLK1 (Homo sapiens), sequence (P49759 whole entry, looked up, the tested form may be a part): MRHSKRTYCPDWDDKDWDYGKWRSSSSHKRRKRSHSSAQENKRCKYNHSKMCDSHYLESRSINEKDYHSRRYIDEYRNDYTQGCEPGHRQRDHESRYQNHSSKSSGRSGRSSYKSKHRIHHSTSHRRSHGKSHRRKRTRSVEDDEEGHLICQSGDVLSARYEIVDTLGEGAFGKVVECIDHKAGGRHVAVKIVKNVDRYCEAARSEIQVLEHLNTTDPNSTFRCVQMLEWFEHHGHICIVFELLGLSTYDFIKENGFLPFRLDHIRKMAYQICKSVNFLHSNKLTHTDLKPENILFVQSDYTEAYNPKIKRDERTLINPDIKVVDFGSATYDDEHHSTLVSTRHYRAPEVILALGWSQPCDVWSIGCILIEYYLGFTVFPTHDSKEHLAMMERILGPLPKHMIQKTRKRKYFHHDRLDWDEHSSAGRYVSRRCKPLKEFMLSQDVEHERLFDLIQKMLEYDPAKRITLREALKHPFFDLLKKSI
Mast/stem cell growth factor receptor Kit (Homo sapiens), sequence (P10721 whole entry): as the sequence (P10721 whole entry L576P) above, with P576L counted along it

For `Clc1cc(NCC2CC2)c2ncc(-c3ccc4[nH]ncc4c3)n2n1`, the inhibition [1] was over 90%, the inhibition [2] was over 90% and the IC50 [3] was 0.303 µM. For the same molecule, the IC50 [4] was 1.6 µM, the IC50 [5] was 8.9 µM and the IC50 [6] was 4.2 µM. For the same molecule, the logD [7] was 3.4, the inhibition [8] was over 90% and the inhibition [9] was over 90%. For the same molecule, the inhibition [10] was over 90%, the inhibition [11] was over 90% and the inhibition [12] was over 90%. It also gave an inhibition [13] of over 90%, an inhibition [14] of over 90% and an inhibition [15] of over 90%. The inhibition [16] was over 90%, the inhibition [17] was over 90% and the inhibition [18] was over 90%. It also gave an inhibition [19] of over 90%, an inhibition [20] of over 90% and an inhibition [21] of over 90%. The EC50 (HEK293) was over 49 µM and the solubility kinetic (physchem) was 0.8 µM (≈ 0.271 µg/mL).

With `CN1CCC(Nc2cc(Cl)nn3c(-c4ccc5[nH]ncc5c4)cnc23)CC1` the logD [7] was 1.8 and the solubility kinetic (physchem) was 58 µM (≈ 22.1 µg/mL).

With `Clc1cc(NCC2CC2)c2ncc(-c3ccc4[nH]c(Nc5ccccc5)nc4c3)n2n1` the logD [7] was 4.1 and the solubility kinetic (physchem) was 2.9 µM (≈ 1.25 µg/mL).

In the case of `Clc1cc(NC2CCOCC2)c2ncc(-c3ccc4[nH]c(Nc5ccccc5)nc4c3)n2n1`, the solubility kinetic (physchem) is reported as 2.4 µM (≈ 1.1 µg/mL).

In the case of `CN1CCC(CNc2cc(Cl)nn3c(-c4cc5nc(Nc6ccccc6)[nH]c5cc4F)cnc23)CC1`, the IC50 [3] is reported as 0.16 µM, the IC50 [4] is reported as 0.27 µM and the IC50 [5] is reported as 0.08 µM. For the same molecule, the IC50 [6] was 0.71 µM, the inhibition [21] was over 90% and the IC50 [22] was 0.74 µM. The IC50 [23] was 0.68 to 1.63 µM and the EC50 (HEK293) was 9 µM.

`CN(c1cc(Cl)nn2c(-c3ccc4[nH]ncc4c3)cnc12)[C@H]1CC[C@H](N)CC1` showed an IC50 [3] of over 10 µM and an IC50 [4] of over 10 µM.

`Cn1c(Nc2ccccc2)nc2cc(-c3cnc4c(NCC5CC5)cc(Cl)nn34)ccc21` gave an IC50 [3] of over 10 µM and an IC50 [4] of over 10 µM.
